Where two headings read alike, the source gives them in different places. Where only a bound is given, the exact number is not on record here.

The test concerns the target Human recombinant Histone Deacetylase 8 (HDAC8) (Homo sapiens (Human), UniProt Q9BY41). Briefly: HDAC8 Enzymatic Assay (HDAC-Glo I/II luminescence). The format is biochemical. The method in brief: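 Human recombinant HDAC8 (1.5 nM final) preincubated with compound for 30 min, then reacted with 50 μM Boc-GAK(Ac)-aminoluciferin plus trypsin-containing developer for 15 min at room temperature, pH 8.0, 0.5% DMSO. Luminescence read-out; IC50 from percent control activity versus log concentration.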

Where [1] appears, read: class symbols, Table 14, read-out: HDAC8 IC50.

Human recombinant Histone Deacetylase 8 (HDAC8), sequence (Q9BY41 whole entry): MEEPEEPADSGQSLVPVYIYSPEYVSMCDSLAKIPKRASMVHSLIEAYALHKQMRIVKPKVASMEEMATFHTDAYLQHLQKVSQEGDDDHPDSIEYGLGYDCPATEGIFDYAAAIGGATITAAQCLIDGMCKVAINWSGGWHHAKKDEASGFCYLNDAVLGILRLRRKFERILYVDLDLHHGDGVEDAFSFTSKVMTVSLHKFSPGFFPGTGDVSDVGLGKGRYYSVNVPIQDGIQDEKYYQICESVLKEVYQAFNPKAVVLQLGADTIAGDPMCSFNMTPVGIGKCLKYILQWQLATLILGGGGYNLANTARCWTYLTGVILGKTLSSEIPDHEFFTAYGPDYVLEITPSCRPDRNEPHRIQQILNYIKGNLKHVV

One may read the IC50 as the midpoint of a concentration-inhibition curve. Consider `O=C(NO)C(Cc1ccccc1)n1cc2cccc(Br)c2n1` (stereo not drawn) [Compound I-0068, 2-(7-bromo-2H-indazol-2-yl)-N-hydroxy-3-phenylpropanamide], for which, under setting [1], the IC50 was in the range of 0.2 to 0.5 µM.

For the molecule `Cn1nccc1-c1ccc2c(cnn2C(Cc2ccccc2)C(=O)NO)n1` (stereo not drawn) [Compound I-0072, N-hydroxy-2-(5-(1-methyl-1H-pyrazol-5-yl)-1H-pyrazolo[4,3-b]pyridin-1-yl)-3-phenylpropanamide], the concentration for half-maximal inhibition (IC50) under setting [1] lay in the range of 0.2 to 0.5 µM.

For `O=C(NO)C(Cc1ccccc1)n1ncc2cc(C3CCC(N4CCCC4)CC3)ccc21` (stereo not drawn) [Compound I-0153, N-hydroxy-3-phenyl-2-(5-(4-(pyrrolidin-1-yl)cyclohexyl)-1H-indazol-1-yl)propanamide], under setting [1], the half-maximal inhibitory concentration (IC50) lay in the range of 0.05 to 0.2 µM.

With `CN1CCN(c2ccc(-c3ccn4c(C(Cc5ccccc5)C(=O)NO)cnc4c3)cn2)CC1` (stereo not drawn) [Compound I-0152, N-hydroxy-2-(7-(6-(4-methylpiperazin-1-yl)pyridin-3-yl)imidazo[1,2-a]pyridin-3-yl)-3-phenylpropanamide], the half-maximal inhibitory concentration (IC50) under setting [1] fell in the range of 0.2 to 0.5 µM.

Take `O=C(NO)C(Cc1ccccc1)n1ccc2cc(Cl)cnc21` (stereo not drawn) [Compound I-0195, 2-(5-chloro-1H-pyrrolo[2,3-b]pyridin-1-yl)-N-hydroxy-3-phenylpropanamide]: the half-inhibitory concentration (IC50) under setting [1] fell in the range of 0.2 to 0.5 µM.

For the molecule `Cc1cccc2nn(C(Cc3ccccc3)C(=O)NO)cc12` (stereo not drawn) [Compound I-0064, N-hydroxy-2-(4-methyl-2H-indazol-2-yl)-3-phenylpropanamide], the concentration for half-maximal inhibition (IC50) under setting [1] is greater than 0.5 µM.

On to `O=C(NO)C(Cc1ccccc1)n1nc2c(Cl)nccc2c1I` (stereo not drawn) [Compound I-0125, 2-(7-chloro-3-iodo-2H-pyrazolo[3,4-c]pyridin-2-yl)-N-hydroxy-3-phenylpropanamide], for which the 50% inhibitory concentration (IC50) under setting [1] lay in the range of 0.05 to 0.2 µM.

On to `O=C(NO)C(Cc1ccccc1)n1ccc2c(Cl)nccc21` (stereo not drawn) [Compound I-0196, 2-(4-chloro-1H-pyrrolo[3,2-c]pyridin-1-yl)-N-hydroxy-3-phenylpropanamide], for which the concentration for half-maximal inhibition (IC50) under setting [1] is 0.2 to 0.5 µM.

As to `COCCn1cc(-c2cccc3c(C#CC4CC4)n(C(Cc4ccccc4)C(=O)NO)nc23)c(C)n1` (stereo not drawn) [Compound I-0165, 2-(3-(cyclopropylethynyl)-7-(1-(2-methoxyethyl)-3-methyl-1H-pyrazol-4-yl)-2H-indazol-2-yl)-N-hydroxy-3-phenylpropanamide], under setting [1], the IC50 is no more than 0.05 µM.

On to `N/C(=N\O)c1ccc(-c2ccc3nn(C(Cc4ccccc4)C(=O)NO)cc3c2)cc1` (stereo not drawn) [Compound I-0033, (Z)-N-hydroxy-2-(5-(4-(N′-hydroxy-carbamimidoyl)phen-yl)-2H-indazol-2-yl)-3-phenylpropanamide], for which the IC50 under setting [1] lay in the range of 0.05 to 0.2 µM.

Consider `O=C(NO)C(Cc1ccccc1)n1cc2cc(Br)ncc2n1` (stereo not drawn) [Compound I-0100, 2-(5-bromo-2H-pyrazolo[3,4-c]pyridine-2-yl)-N-hydroxy-3-phenylpropanamide], for which, under setting [1], the IC50 was greater than 0.5 µM.

On to `O=C(NO)C(Cc1ccccc1)n1ncc2c(-c3cncnc3)cccc21` (stereo not drawn) [Compound I-0081, N-hydroxy-3-phenyl-2-(4-(pyrimidin-5-yl)-1H-indazol-1-yl)propanamide], for which, under setting [1], the 50% inhibitory concentration (IC50) is 0.05 to 0.2 µM.

As to `O=C(NO)C(Cc1ccccc1)n1cc2c(-c3cncnc3)cccc2n1` (stereo not drawn) [Compound I-0063, N-hydroxy-3-phenyl-2-(4-(pyrimidin-5-yl)-2H-indazol-2-yl)propanamide], the IC50 under setting [1] lay in the range of 0.2 to 0.5 µM.

Turning to `NC(=O)c1cccc(-c2cccc3c(C#CC4CC4)n(C(Cc4ccccc4)C(=O)NO)nc23)c1` (stereo not drawn) [Compound I-0157, 3-(3-(cyclopropylethynyl)-2-(1-(hydroxyamino)-1-oxo-3-phenylpropan-2-yl)-2H-indazol-7-yl)benzamide], under setting [1], the IC50 is no more than 0.05 µM.

Consider `O=C(NO)C(Cc1ccccc1)n1ncc2cc(-c3ccccc3)ncc21` (stereo not drawn) [Compound I-0086, N-hydroxy-3-phenyl-2-(5-phenyl-1H-pyrazolo[3,4-c]pyridin-1-yl)propanamide], for which the IC50 under setting [1] is greater than 0.5 µM.

For `Cn1cc(-c2cccc3cn(C(Cc4ccccc4)C(=O)NO)nc23)cn1` (stereo not drawn) [Compound I-0109, N-hydroxy-2-(7-(1-methyl-1H-pyrazol-4-yl)-2H-indazol-2-yl)-3-phenylpropanamide], the half-inhibitory concentration (IC50) under setting [1] was 0.2 to 0.5 µM.

In the case of `O=C(NO)C(Cc1ccccc1)n1cc2ccc(-c3ccccc3)cc2n1` (stereo not drawn) [Compound I-0006, N-hydroxy-3-phenyl-2-(6-phenyl-2H-indazol-2-yl)propanamide], the concentration for half-maximal inhibition (IC50) under setting [1] was 0.2 to 0.5 µM.

`CN1CCC(c2cccc3nn(C(Cc4ccccc4)C(=O)NO)cc23)CC1` (stereo not drawn) [Compound I-0065, N-hydroxy-2-(4-(1-methylpiperidin-4-yl)-2H-indazol-2-yl)-3-phenylpropanamide]: the concentration for half-maximal inhibition (IC50) under setting [1] was greater than 0.5 µM.

Take `CCc1ccc2cnn(C(Cc3ccccc3)C(=O)NO)c2c1` (stereo not drawn) [Compound I-0018, 2-(6-Ethyl-1H-indazol-1-yl)-N-hydroxy-3-phenylpropanamide]: the IC50 was 0.443 µM (HDAC8, read-out: IC50) and 0.2 to 0.5 µM under setting [1].

On to `O=C(NO)C(Cc1ccccc1)n1ncc2nc(-c3cncnc3)ccc21` (stereo not drawn) [Compound I-0074, N-hydroxy-3-phenyl-2-(5-(pyrimidin-5-yl)-1H-pyrazolo[4,3-b]pyridin-1-yl)propanamide], for which the IC50 under setting [1] is 0.05 to 0.2 µM.

For `O=C(NO)C(Cc1ccccc1)n1cc2ccc(F)cc2n1` (stereo not drawn) [Compound I-0037, 2-(6-fluoro-2H-indazol-2-yl)-N-hydroxy-3-phenylpropanamide], under setting [1], the IC50 is greater than 0.5 µM.

For `O=C(NO)C(Cc1ccccc1)n1nc2ccc(-c3ccncc3)cc2c1C#CC1CC1` (stereo not drawn) [Compound I-0029, 2-(3-(cyclopropylethynyl)-5-(pyridin-4-yl)-2H-indazol-2-yl)-N-hydroxy-3-phenylpropanamide], the IC50 under setting [1] lay within 0.05 to 0.2 µM.

As to `O=C(NO)C(Cc1ccccc1)c1cnc2c(-c3cccnc3)cccn12` (stereo not drawn) [Compound I-0163, N-hydroxy-3-phenyl-2-(8-(pyridin-3-yl)imidazo[1,2-a]pyridin-3-yl)propanamide], under setting [1], the IC50 was greater than 0.5 µM.

With `O=C(NO)C(Cc1ccccc1)n1cc2nc(Cl)ccc2n1` (stereo not drawn) [Compound I-0077, 2-(5-chloro-2H-pyrazolo[4,3-b]pyridin-2-yl)-N-hydroxy-3-phenylpropanamide], the half-maximal inhibitory concentration (IC50) under setting [1] was greater than 0.5 µM.

Take `O=C(NO)C(Cc1ccccc1)n1cc2ccnc(Cl)c2n1` (stereo not drawn) [Compound I-0129, 2-(7-chloro-2H-pyrazolo[3,4-c]pyridin-2-yl)-N-hydroxy-3-phenylpropanamide]: the IC50 under setting [1] is 0.2 to 0.5 µM.

Consider `NC(=O)c1ccc(-c2cccn3c(C(Cc4ccccc4)C(=O)NO)cnc23)cc1` (stereo not drawn) [Compound I-0167, 4-(3-(1-(hydroxyamino)-1-oxo-3-phenylpropan-2-yl)imidazo[1,2-a]pyridin-8-yl)benzamide], for which, under setting [1], the IC50 was 0.2 to 0.5 µM.

As for `Cn1nccc1-c1nccc2c(C#CC3CC3)n(C(Cc3ccccc3)C(=O)NO)nc12` (stereo not drawn) [Compound I-0128, 2-[3-(Cyclopropylethynyl)-7-(1-methyl-1H-pyrazol-5-yl)-2H-pyrazolo[3,4-c]pyridin-2-yl]-N-hydroxy-3-phenylpropanamide], the IC50 reads like this: (HDAC8, read-out: IC50) 0.0043 µM; under setting [1], no more than 0.05 µM.

For `O=C(NO)C(Cc1ccccc1)n1ncc2ccc(-c3ccccc3)cc21` (stereo not drawn) [Compound I-0022, N-hydroxy-3-phenyl-2-(6-phenyl-1H-indazol-1-yl)propanamide], the IC50 under setting [1] was greater than 0.5 µM.

Regarding `O=C(NO)C(Cc1ccccc1)n1cc2cc(-c3ccncc3)ccc2n1` (stereo not drawn) [Compound I-0050, N-hydroxy-3-phenyl-2-(5-(pyridin-4-yl)-2H-indazol-2-yl)propanamide], the half-maximal inhibitory concentration (IC50) under setting [1] is 0.2 to 0.5 µM.

With `O=C(NO)C(Cc1ccccc1)n1ncc2cc(-c3cccnc3)ncc21` (stereo not drawn) [Compound I-0095, N-hydroxy-3-phenyl-2-(5-(pyridin-3-yl)-1H-pyrazolo[3,4-c]pyridin-1-yl)propanamide], under setting [1], the concentration for half-maximal inhibition (IC50) lay in the range of 0.2 to 0.5 µM.

`O=C(NO)C(Cc1ccccc1)n1cc2ccc(-c3cncnc3)cc2n1` (stereo not drawn) [Compound I-0007, N-hydroxy-3-phenyl-2-(6-(pyrimidin-5-yl)-2H-indazol-2-yl)propanamide]: the IC50 under setting [1] was in the range of 0.2 to 0.5 µM.

Take `O=C(NO)C(Cc1ccccc1)c1cnc2cc(Cl)ccn12` (stereo not drawn) [Compound I-0093, 2-(7-Chloroimidazo[1,2-a]pyridin-3-yl)-N-hydroxy-3-phenylpropanamide]: the IC50 runs as follows: (HDAC8, read-out: IC50) 0.022 µM; under setting [1], no more than 0.05 µM.

As for `CNC(=O)c1ccc(-c2nccc3c(C#CC4CC4)n(C(Cc4ccccc4)C(=O)NO)nc23)cc1` (stereo not drawn) [Compound I-0141, 4-(3-(cyclopropylethynyl)-2-(1-(hydroxyamino)-1-oxo-3-phenylpropan-2-yl)-2H-pyrazolo[3,4-c]pyridin-7-yl)-N-methylbenzamide], the concentration for half-maximal inhibition (IC50) under setting [1] is no more than 0.05 µM.

`O=C(NO)C(Cc1ccccc1)n1ncc2cc(-c3c(F)cccc3F)ncc21` (stereo not drawn) [Compound I-0087, 2-(5-(2,6-difluorophenyl)-1H-pyrazolo[3,4-c]pyridin-1-yl)-N-hydroxy-3-phenylpropanamide]: the half-maximal inhibitory concentration (IC50) under setting [1] was greater than 0.5 µM.

For `O=C(NO)C(Cc1ccccc1)n1ncc2c1CCCC2` (stereo not drawn) [Compound I-0201, N-hydroxy-3-phenyl-2-(4,5,6,7-tetrahydro-1H-indazol-1-yl)propanamide], the half-maximal inhibitory concentration (IC50) under setting [1] was 0.2 to 0.5 µM.

Regarding `O=C(NO)C(Cc1ccccc1)n1nc2c(-c3cncnc3)cccc2c1C#CC1CC1` (stereo not drawn) [Compound I-0156, 2-(3-(cyclopropylethynyl)-7-(pyrimidin-5-yl)-2H-indazol-2-yl)-N-hydroxy-3-phenylpropanamide], under setting [1], the half-maximal inhibitory concentration (IC50) is no more than 0.05 µM.

Take `O=C(NO)C(Cc1ccccc1)n1nc2ccc(-c3cccnc3)cc2c1C#CC1CC1` (stereo not drawn) [Compound I-0045, 2-(3-(cyclopropylethynyl)-5-(pyridin-3-yl)-2H-indazol-2-yl)-N-hydroxy-3-phenylpropanamide]: the IC50 under setting [1] was in the range of 0.05 to 0.2 µM.

In the case of `Cn1nccc1-c1cnc2c(cnn2C(Cc2ccccc2)C(=O)NO)c1` (stereo not drawn) [Compound I-0119, N-hydroxy-2-(5-(1-methyl-1H-pyrazol-5-yl)-1H-pyrazolo[3,4-b]pyridin-1-yl)-3-phenylpropanamide], the half-maximal inhibitory concentration (IC50) under setting [1] was 0.2 to 0.5 µM.

In the case of `O=C(NO)C(Cc1ccccc1)n1cc2cccc(CNCC3CC3)c2n1` (stereo not drawn) [Compound I-0181, 2-(7-((cyclopropylmethylamino)methyl)-2H-indazol-2-yl)-N-hydroxy-3-phenylpropanamide], the IC50 under setting [1] is greater than 0.5 µM.

Values taken from US10723705B2, “Heterocyclic compounds and uses thereof” (Incyte Corporation, priority 2015, dated 2020).
